Where two headings read alike, the source gives them in different places.
Columns and labels:
[1] = tested on: NCI-H522 (NSCLC); assay: NCI 60 one dose screen; type: cell-based, human; conditions: Non-small Cell Lung Cancer
[2] = tested on: SF-295; assay: NCI 60 one dose screen; type: cell-based, human; conditions: one dose; CNS Cancer; SF-295
[3] = tested on: SF-539; assay: NCI 60 one dose screen; type: cell-based, human; conditions: one dose; CNS Cancer; SF-539
[4] = tested on: 60 different human tumor cell lines; conditions: five dose
[5] = tested on: glioblastoma (SF-295); assay: NCI 60 five dose screen; conditions: for GI50 / CC50: Homo sapiens; for GI50: SF-295; for CC50: SF-295, read-out: LC50; for TGI: SF-295 (CNS Cancer), five dose
[6] = A549/ATCC (Non-small Cell Lung Cancer)
[7] = EKVX (Non-small Cell Lung Cancer)
[8] = HOP-62 (Non-small Cell Lung Cancer)
[9] = MDA-MB-231/ATCC (Breast Cancer)
[10] = NCI-H23 (Non-small Cell Lung Cancer)
[11] = NCI-H226 (Non-small Cell Lung Cancer)
[12] = NCI-H322M (Non-small Cell Lung Cancer)
[13] = NCI-H460 (Non-small Cell Lung Cancer)
[14] = NCI-H522 (Non-small Cell Lung Cancer)

## C[C@]12CC[C@H]3[C@@H](CC=C4c5sc(Nc6ccccc6)nc5CC[C@@]43C)[C@@H]1CC[C@@H]2O [IIIa.10, (1S,2R,13R,14S,17S,18S)-7-anilino-2,18-dimethyl-8-thia-6-azapentacyclo[11.7.0.02,10.05,9.014,18]icosa-5(9),6,10-trien-17-ol]
[1]
  Growth Percent: 25.77%
[2]
  Growth Percent: 7.36%
[3]
  Growth Percent: −34.31%
[4]; 786-0 (Renal Cancer)
  TGI: 3.30E−6
[4]; A498 (Renal Cancer)
  TGI: 5.66E−6
[4]; [6]
  TGI: 6.02E−6
[4]; ACHN (Renal Cancer)
  TGI: 3.25E−6
[4]; BT-549 (Breast Cancer)
  TGI: 4.31E−6
[4]; CAKI-1 (Renal Cancer)
  TGI: 5.68E−6
[4]; CCRF-CEM (Leukemia)
  TGI: 2.71E−5
[4]; COLO 205 (Colon Cancer)
  TGI: 5.61E−6
[4]; DU-145 (Prostate Cancer)
  TGI: 3.62E−6
[4]; [7]
  TGI: 9.26E−6
[4]; HCC-2998 (Colon Cancer)
  TGI: 3.56E−6
[4]; HCT-15 (Colon Cancer)
  TGI: 5.15E−6
[4]; HCT-116 (Colon Cancer)
  TGI: 3.01E−6
[4]; HL-60(TB) (Leukemia)
  TGI: 6.87E−6
[4]; [8]
  TGI: 6.54E−6
[4]; HOP-92 (Non-small Cell Lung Cancer)
  TGI: 6.77E−6
[4]; HS 578T (Breast Cancer)
  TGI: 1.72E−5
[4]; HT29 (Colon Cancer)
  TGI: 4.45E−6
[4]; IGROV1 (Ovarian Cancer)
  TGI: 7.85E−6
[4]; K-562 (Leukemia)
  TGI: 1.26E−5
[4]; KM12 (Colon Cancer)
  TGI: 3.12E−6
[4]; LOX IMVI (Melanoma)
  TGI: 2.77E−6
[4]; M14 (Melanoma)
  TGI: 4.27E−6
[4]; MALME-3M (Melanoma)
  TGI: 5.89E−6
[4]; MCF7 (Breast Cancer)
  TGI: 4.73E−6
[4]; [9]
  TGI: 4.63E−6
[4]; MDA-MB-435 (Melanoma)
  TGI: 7.03E−6
[4]; MDA-MB-468 (Breast Cancer)
  TGI: 3.38E−6
[4]; MOLT-4 (Leukemia)
  TGI: 8.07E−6
[4]; [10]
  TGI: 5.04E−6
[4]; [11]
  TGI: 5.57E−6
[4]; [12]
  TGI: 1.11E−5
[4]; [13]
  TGI: 4.04E−6
[4]; [14]
  TGI: 4.50E−6
[4]; NCI/ADR-RES (Ovarian Cancer)
  TGI: 9.17E−5
[4]; OVCAR-3 (Ovarian Cancer)
  TGI: 2.62E−6
[4]; OVCAR-4 (Ovarian Cancer)
  TGI: 1.54E−5
[4]; OVCAR-5 (Ovarian Cancer)
  TGI: 7.86E−6
[4]; OVCAR-8 (Ovarian Cancer)
  TGI: 1.49E−5
[4]; PC-3 (Prostate Cancer)
  TGI: 5.84E−6
[4]; RXF 393 (Renal Cancer)
  TGI: 2.28E−6
[4]; SF-268 (CNS Cancer)
  TGI: 3.32E−6
[4]; SK-MEL-2 (Melanoma)
  TGI: 5.64E−6
[4]; SK-MEL-5 (Melanoma)
  TGI: 3.41E−6
[4]; SK-MEL-28 (Melanoma)
  TGI: 3.99E−6
[4]; SK-OV-3 (Ovarian Cancer)
  TGI: 1.79E−5
[4]; SN12C (Renal Cancer)
  TGI: 3.28E−6
[4]; SNB-19 (CNS Cancer)
  TGI: 3.77E−6
[4]; SNB-75 (CNS Cancer)
  TGI: 3.05E−6
[4]; SW-620 (Colon Cancer)
  TGI: 5.36E−6
[4]; TK-10 (Renal Cancer)
  TGI: 6.63E−6
[4]; U251 (CNS Cancer)
  TGI: 2.79E−6
[4]; UACC-62 (Melanoma)
  TGI: 3.96E−6
[4]; UACC-257 (Melanoma)
  TGI: 6.68E−6
[4]; UO-31 (Renal Cancer)
  TGI: 3.05E−6
[5]
  GI50: 1.06 µM
  CC50: 8.38 µM
  TGI: 2.98E−6

## C[C@]12CC[C@H]3[C@@H](CC=C4c5sc(-c6ccc(O)cc6)nc5CC[C@@]43C)[C@@H]1CC[C@@H]2O [III.5, (1S,2R,13R,14S,17S,18S)-7-(4-hydroxyphenyl)-2,18-dimethyl-8-thia-6-azapentacyclo[11.7.0.02,10.05,9.014,18]icosa-5(9),6,10-trien-17-ol]
[1]
  Growth Percent: 41.21%
[2]
  Growth Percent: −36.24%
[3]
  Growth Percent: 8.02%
[4]; 786-0 (Renal Cancer)
  TGI: 2.39E−6
[4]; A498 (Renal Cancer)
  TGI: 2.13E−5
[4]; [6]
  TGI: >1.00E−4
[4]; ACHN (Renal Cancer)
  TGI: >1.00E−4
[4]; BT-549 (Breast Cancer)
  TGI: 1.94E−5
[4]; CAKI-1 (Renal Cancer)
  TGI: >1.00E−4
[4]; CCRF-CEM (Leukemia)
  TGI: 4.72E−5
[4]; COLO 205 (Colon Cancer)
  TGI: >1.00E−4
[4]; DU-145 (Prostate Cancer)
  TGI: >1.00E−4
[4]; [7]
  TGI: >1.00E−4
[4]; HCC-2998 (Colon Cancer)
  TGI: >1.00E−4
[4]; HCT-15 (Colon Cancer)
  TGI: 2.07E−5
[4]; HCT-116 (Colon Cancer)
  TGI: 2.74E−5
[4]; HL-60(TB) (Leukemia)
  TGI: >1.00E−4
[4]; [8]
  TGI: 5.05E−5
[4]; HS 578T (Breast Cancer)
  TGI: 6.01E−5
[4]; HT29 (Colon Cancer)
  TGI: 2.04E−5
[4]; IGROV1 (Ovarian Cancer)
  TGI: >1.00E−4
[4]; K-562 (Leukemia)
  TGI: >1.00E−4
[4]; KM12 (Colon Cancer)
  TGI: >1.00E−4
[4]; LOX IMVI (Melanoma)
  TGI: 1.46E−5
[4]; M14 (Melanoma)
  TGI: 2.93E−5
[4]; MALME-3M (Melanoma)
  TGI: >1.00E−4
[4]; MCF7 (Breast Cancer)
  TGI: 2.15E−5
[4]; [9]
  TGI: 3.29E−5
[4]; MDA-MB-435 (Melanoma)
  TGI: >1.00E−4
[4]; MDA-MB-468 (Breast Cancer)
  TGI: 4.16E−5
[4]; MOLT-4 (Leukemia)
  TGI: >1.00E−4
[4]; [10]
  TGI: >1.00E−4
[4]; [11]
  TGI: >1.00E−4
[4]; [12]
  TGI: >1.00E−4
[4]; [13]
  TGI: >1.00E−4
[4]; [14]
  TGI: >1.00E−4
[4]; NCI/ADR-RES (Ovarian Cancer)
  TGI: >1.00E−4
[4]; OVCAR-3 (Ovarian Cancer)
  TGI: 8.37E−5
[4]; OVCAR-4 (Ovarian Cancer)
  TGI: >1.00E−4
[4]; OVCAR-5 (Ovarian Cancer)
  TGI: >1.00E−4
[4]; OVCAR-8 (Ovarian Cancer)
  TGI: >1.00E−4
[4]; RXF 393 (Renal Cancer)
  TGI: 1.31E−6
[4]; SF-268 (CNS Cancer)
  TGI: >1.00E−4
[4]; SK-MEL-2 (Melanoma)
  TGI: 6.94E−5
[4]; SK-MEL-5 (Melanoma)
  TGI: 1.31E−5
[4]; SK-MEL-28 (Melanoma)
  TGI: 6.60E−5
[4]; SK-OV-3 (Ovarian Cancer)
  TGI: >1.00E−4
[4]; SN12C (Renal Cancer)
  TGI: >1.00E−4
[4]; SNB-19 (CNS Cancer)
  TGI: >1.00E−4
[4]; SNB-75 (CNS Cancer)
  TGI: 2.57E−5
[4]; SW-620 (Colon Cancer)
  TGI: >1.00E−4
[4]; T-47D (Breast Cancer)
  TGI: >1.00E−4
[4]; TK-10 (Renal Cancer)
  TGI: >1.00E−4
[4]; U251 (CNS Cancer)
  TGI: 6.73E−5
[4]; UACC-62 (Melanoma)
  TGI: 7.64E−6
[4]; UACC-257 (Melanoma)
  TGI: >1.00E−4
[4]; UO-31 (Renal Cancer)
  TGI: 2.04E−5
[5]
  GI50: 0.413 µM
  CC50: 8.2 µM
  TGI: 2.03E−6

## C[C@]12CCc3sc(Nc4ccc(F)cc4F)nc3C1=CC[C@@H]1[C@@H]2CC[C@]2(C)C(=O)CC[C@@H]12 [IIa.10, (1S,2R,13R,14S,18S)-7-(2,4-difluoroanilino)-2,18-dimethyl-6-thia-8-azapentacyclo[11.7.0.02,10.05,9.014,18]icosa-5(9),7,10-trien-17-one]
[1]
  Growth Percent: 42.56%
[2]
  Growth Percent: 50.99%
[3]
  Growth Percent: 49.60%
[4]; A498 (Renal Cancer)
  TGI: >1.00E−4
[4]; [6]
  TGI: >1.00E−4
[4]; BT-549 (Breast Cancer)
  TGI: >1.00E−4
[4]; [7]
  TGI: >1.00E−4
[4]; HS 578T (Breast Cancer)
  TGI: >1.00E−4
[4]; K-562 (Leukemia)
  TGI: >1.00E−4
[4]; MOLT-4 (Leukemia)
  TGI: >1.00E−4
[4]; [12]
  TGI: >1.00E−4
[4]; OVCAR-4 (Ovarian Cancer)
  TGI: >1.00E−4
[4]; OVCAR-5 (Ovarian Cancer)
  TGI: >1.00E−4
[4]; OVCAR-8 (Ovarian Cancer)
  TGI: >1.00E−4
[4]; SK-OV-3 (Ovarian Cancer)
  TGI: >1.00E−4
[4]; SNB-19 (CNS Cancer)
  TGI: >1.00E−4
[4]; U251 (CNS Cancer)
  TGI: >1.00E−4
[5]
  CC50: > 100 µM
  TGI: >1.00E−4
